Laboratory results published in patent US4264625A, “Pesticidal unsymmetrical bis-arylcarbamate sulfide compounds” (Union Carbide Corporation, priority 1978, dated 1981).

Key:
Type in all cases: in vivo
Bean = details: 2500 ppm spray, ten days, rating 1-5
Procedure: (§1) POST-EMERGENT HERBICIDAL TEST
(§2) Experiments were also conducted to determine the phytotoxicity of representative compositions with respect to healthy fresh plants. Solutions of the compounds were prepared as described above to provide a concentration of 2500 parts per million of the test compound. The test plants were sprayed in accordance with the procedure described above for the Mite Foliage Spray Test so as to deliver approximately 100 milliliters of test solution to the leaves of each plant tested. The sprayed plants and controls were set aside for approximately one hour to allow the solutions to dry and were then placed in the greenhouse. After ten days the plants were visually inspected to determine the extent of foliage injury. A rating of 1 indicates no perceptible injury; 5 indicates the plant was dead and ratings of 2, 3 and 4 indicate intermediate degrees of injury based upon the number and extent to which leaves were injured.

Tomato = details: 2500 ppm spray, ten days, rating 1-5
Procedure: as §1, §2

Corn = details: 2500 ppm spray, ten days, rating 1-5
Procedure: as §1, §2

Cotton = details: 2500 ppm spray, ten days, rating 1-5
Procedure: as §1, §2

Soybean = details: 2500 ppm spray, ten days, rating 1-5
Procedure: as §1, §2

[1] = system: two-spotted mite (Tetranychus urticae Koch); assay: Mite Foliage Spray Test; design: key: A: excellent control; B: partial control; C: no control; details: 500 ppm foliage spray, six days, mortality rating
Procedure: (§3) Suspensions of the test compounds were prepared by dissolving one gram of compound in 50 milliliters of acetone in which had been dissolved 0.1 gram (10 percent of the weight of compound) of an alkylphenoxy polyethoxyethanol surfactant, as an emulsifying or dispersing agent. The resulting solution was mixed into 150 milliliters of water to give roughly 200 milliliters of a suspension containing the compound in finely divided form. The thus-prepared stock suspension contained 0.5 percent by weight of compound. The test concentrations in parts per million by weight employed in the tests described hereinbelow were obtained by appropriate dilutions of the stock suspension with water. The test procedures were as follows:
Adults and nymphal stages of the two-spotted mite (Tetranychus urticae Koch), reared on Tendergreen bean plants at 80±5 percent relative humidity, were the test organisms. Infested leaves from a stock culture were placed on the primary leaves of two bean plants six to eight inches in height, growing in a two-and-a-half inch clay pot. 150-200 Mites, a sufficient number for testing, transferred from the excised leaves to the fresh plants in a period of twenty four hours. Following the twenty four hour transfer period, the excised leaves were removed from the infested plants. The test compounds were formulated by diluting the stock suspension with water to give a suspension containing 500 parts of test compound per million parts of final formulation. The potted plants (one pot per compound) were placed on a revolving turntable and sprayed with 100-110 milliliters of test compound formulation by use of a DeVilbiss spray gun set at 40 psig. air pressure. This application, which lasted 25 seconds, was sufficient to wet the plants to run-off. As a control, 100-110 milliliters of a water solution containing acetone and emulsifier in the same concentrations as the test compound formulation, but containing no test compound, were also sprayed on infested plants. The sprayed plants were held at 80±5 percent relative humidity for six days, after which a mortality count of motile forms was made. Microscopic examination for motile forms was made on the leaves of the test plants. Any individual which was capable of locomotion upon prodding was considered living.
(§4) In these tests the pesticidal activity of the compounds against aphid, mite, Southern Armyworm, Bean Beetle and house fly was rated as follows: […]

[2] = system: bean aphid (Aphis fabae Scop.); assay: Bean Aphid Foliage Spray Test; design: key: A: excellent control; B: partial control; C: no control; details: 500 ppm foliage spray, 24 hours, mortality rating
Procedure: as §3
Bean Aphid Foliage Spray Test
Adults and nymphal stages of the bean aphid (Aphis fabae Scop.) reared on potted dwarf nasturtium plants at 65°-70° F. and 50-70 percent relative humidity, constituted the test insects. For testing purposes, the number of aphids per pot was standardized to 100-150 by trimming plants containing excess aphids.
The test compounds were formulated by diluting the stock suspension with water to give a suspension containing 500 parts of test compound per million parts of final formulation.
The potted plants (one pot per compound tested) infested with 100-150 aphids, were placed on a revolving turntable and sprayed with 100-110 milliliters of test compound formulation by use of a DeVilbiss spray gun set at 40 psig. air pressure. This application, which lasted 25 seconds, was sufficient to wet the plants to run-off. As a control, 100-110 milliliters of a water-acetone-emulsifier solution containing no test compound were also sprayed on infested plants. After spraying, the pots were placed on their sides on a sheet of white standard mimeograph paper which had been previously ruled to facilitate counting. Temperature and humidity in the test room during the 24 hour holding period were 65°-70° F. and 50-70 percent, respectively. Aphids which fell onto the paper and were unable to remain standing after being uprighted were considered dead. Aphids remaining on the plants were observed closely for movement and those which were unable to move the length of the body upon stimulation by prodding were considered dead. Percent mortality was recorded for various concentration levels.
as §4

[3] = system: Mexican bean beetle (Epilachna varivestis, Muls.); assay: Mexican Bean Beetle Leaf Spray Test; design: key: A: excellent control; B: partial control; C: no control; details: 500 ppm leaf spray, fourth instar larvae, three days, mortality rating
Procedure: as §3
Mexican Bean Beetle Leaf Spray Test
Fourth instar larvae of the Mexican bean beetle (Epilachna varivestis, Muls.), reared on Tendergreen bean plants at a temperature of 80°±5° F. and 50±5 percent relative humidity, were the test insects.
The test compounds were formulated by diluting the stock suspension with water to give a suspension containing 500 parts of test compound per million parts of final formulation. Potted Tendergreen bean plants of standard height and age were placed on a revolving turntable and sprayed with 100-110 milliliters of test compound formulation by use of a DeVilbiss spray gun set at 10 psig air pressure. This application, which lasted 25 seconds, was sufficient to wet plants to run-off. As a control, 100-110 milliliters of a water-acetone-emulsifier solution containing no test compound were also sprayed on infested plants. When dry, the paired leaves were separated and each was placed in a 9 centimeter Petri dish lined with moistened filter paper. Five randomly selected larvae were introduced into each dish, and the dishes were closed. The closed dishes were labeled and held at a temperature of 80°±5° F. for three days. Although the larvae could easily consume the leaf within 24 to 48 hours, no more food was added. Larvae which were unable to move the length of the body, even upon stimulation, were considered dead.
as §4

[4] = system: house flies (Musca domestica, L.); assay: Fly Bait Test; design: key: A: excellent control; B: partial control; C: no control; details: 500 ppm in sugar-solution bait, 24 hours, mortality rating
Procedure: as §3
Four to six day old adult house flies (Musca domestica, L.) reared according to the specifications of the Chemical Specialties Manufacturing Association (Blue Book, McNair-Dorland Co., N.Y. 1954; pages 243-244, 261) under controlled conditions of 80°±5° F. and 50±5 percent relative humidity, were the test insects. The flies were immobilized by anesthetizing with carbon dioxide and twenty five immobilized individuals, males and females, were transferred to a cage consisting of a standard food strainer about five inches in diameter which was inverted over a wrapping-paper-covered surface. The test compounds were formulated by diluting the stock suspension with a 10 percent (by weight) sugar solution to give a suspension containing 500 parts of test compound per million parts of final formulation, by weight. Ten milliliters of the test formulation were added to a souffle cup containing a one-inch square of an absorbent cotton pad. This bait cup was introduced and centered on the blotting paper under the food strainer prior to admitting the anesthetized flies. The caged flies were allowed to feed on the bait for twenty four hours, at a temperature of 80°±5° F. and the relative humidity of 50±5 percent.
as §4

[5] = system: southern armyworm (Prodenia eridania, (Cram.)); assay: Southern Armyworm Leaf Spray Test; design: key: A: excellent control; B: partial control; C: no control; details: 500 ppm leaf spray, larvae, three days, mortality rating
Procedure: as §3
Southern Armyworm Leaf Spray Test
Larvae of the southern armyworm (Prodenia eridania, (Cram.)), reared on Tendergreen bean plants at a temperature of 80°±5° F. and a relative humidity of 50±5 percent, constituted the test insects.
The test compounds were formulated by diluting the stock suspension with water to give a suspension containing 500 parts of test compound per million parts of final formulation. Potted Tendergreen bean plants of standard height and age were placed on a revolving turntable and sprayed with 100-110 milliliters of test compound formulation by use of a DeVilbiss spray gun set at 10 psig air pressure. This application, which lasted 25 seconds, was sufficient to wet plants to run-off. As a control, 100-110 milliliters of a water-acetone-emulsifier solution containing no test compound were also sprayed on infested plants. When dry, the paired leaves were separated and each one was placed in a 9 centimeter Petri dish lined with moistened filter paper. Five randomly selected larvae were introduced into each dish and the dishes were closed. The closed dishes were labeled and held at 80°-85° F. for three days. Although the larvae could easily consume the whole leaf within twenty-four hours, no more food was added. Larvae which were unable to move the length of the body, even upon stimulation by prodding, were considered dead. Percent mortality was recorded for various concentration levels.
as §4

COC(=O)Nc1ccc(OC(=O)N(C)SN(C)C(=O)Oc2ccc(NC(=O)OC)c(C(C)C)c2)cc1C(C)C
Phytotoxicity, Bean (Bean): 1
Phytotoxicity, Tomato (Tomato): 1
Phytotoxicity, Corn (Corn): 1
Phytotoxicity, Cotton (Cotton): 1
Phytotoxicity, Soybean (Soybean): 1
Pesticidal Activity, Mite [1]: C
Pesticidal Activity, Aphid [2]: C
Pesticidal Activity, Mexican Bean Beetle [3]: A
Pesticidal Activity, House fly [4]: C
Pesticidal Activity, Southern Armyworm [5]: A

CN(SN(C)C(=O)Oc1ccccc1C1SCCS1)C(=O)Oc1ccccc1C1SCCS1
Phytotoxicity, Bean (Bean): 1
Phytotoxicity, Tomato (Tomato): 1
Phytotoxicity, Corn (Corn): 1
Phytotoxicity, Cotton (Cotton): 1
Phytotoxicity, Soybean (Soybean): 1
Pesticidal Activity, Mite [1]: C
Pesticidal Activity, Aphid [2]: A
Pesticidal Activity, Mexican Bean Beetle [3]: A
Pesticidal Activity, House fly [4]: A
Pesticidal Activity, Southern Armyworm [5]: A

CCCCCCCCCCCCc1ccc(OC(=O)N(C)SN(C)C(=O)Oc2cccc3ccccc23)cc1
Phytotoxicity, Bean (Bean): 1
Phytotoxicity, Tomato (Tomato): 1
Phytotoxicity, Corn (Corn): 1
Phytotoxicity, Cotton (Cotton): 1
Phytotoxicity, Soybean (Soybean): 1
Pesticidal Activity, Mite [1]: C
Pesticidal Activity, Aphid [2]: C
Pesticidal Activity, Mexican Bean Beetle [3]: A
Pesticidal Activity, House fly [4]: C
Pesticidal Activity, Southern Armyworm [5]: A

CCCCCCCCCc1ccc(OC(=O)N(C)SN(C)C(=O)Oc2cccc3ccccc23)cc1
Phytotoxicity, Bean (Bean): 1
Phytotoxicity, Tomato (Tomato): 1
Phytotoxicity, Corn (Corn): 1
Phytotoxicity, Cotton (Cotton): 1
Phytotoxicity, Soybean (Soybean): 1
Pesticidal Activity, Mite [1]: C
Pesticidal Activity, Aphid [2]: C
Pesticidal Activity, Mexican Bean Beetle [3]: A
Pesticidal Activity, House fly [4]: C
Pesticidal Activity, Southern Armyworm [5]: A

Cc1cc(OC(=O)N(C)SN(C)C(=O)Oc2ccc(N=CN(C)C)c(C)c2)ccc1N=CN(C)C [drawing 39]
Phytotoxicity, Bean (Bean): 2
Phytotoxicity, Tomato (Tomato): 1
Phytotoxicity, Corn (Corn): 1
Phytotoxicity, Cotton (Cotton): 1
Phytotoxicity, Soybean (Soybean): 2
Pesticidal Activity, Mite [1]: A
Pesticidal Activity, Aphid [2]: A
Pesticidal Activity, Mexican Bean Beetle [3]: A
Pesticidal Activity, House fly [4]: A
Pesticidal Activity, Southern Armyworm [5]: A

Cc1cc(OC(=O)N(C)SN(C)C(=O)Oc2ccc(N=CN(C)C)c(C)c2)ccc1N=CN(C)C [drawing 37]
Phytotoxicity, Bean (Bean): 1
Phytotoxicity, Tomato (Tomato): 1
Phytotoxicity, Corn (Corn): 1
Phytotoxicity, Cotton (Cotton): 1
Phytotoxicity, Soybean (Soybean): 1
Pesticidal Activity, Mite [1]: A
Pesticidal Activity, Aphid [2]: A
Pesticidal Activity, Mexican Bean Beetle [3]: A
Pesticidal Activity, House fly [4]: A
Pesticidal Activity, Southern Armyworm [5]: A

Cc1cc(OC(=O)N(C)SN(C)C(=O)Oc2ccc(N=CN(C)C)c(C)c2)ccc1N=CN(C)C [drawing 41]
Phytotoxicity, Bean (Bean): 1
Phytotoxicity, Tomato (Tomato): 1
Phytotoxicity, Corn (Corn): 1
Phytotoxicity, Cotton (Cotton): 1
Phytotoxicity, Soybean (Soybean): 2
Pesticidal Activity, Mite [1]: A
Pesticidal Activity, Aphid [2]: A
Pesticidal Activity, Mexican Bean Beetle [3]: A
Pesticidal Activity, House fly [4]: A
Pesticidal Activity, Southern Armyworm [5]: A

CN(SN(C)C(=O)Oc1cccc2c1OC(C)(C)C2)C(=O)Oc1ccccc1C1SCCS1
Phytotoxicity, Bean (Bean): 1
Phytotoxicity, Tomato (Tomato): 1
Phytotoxicity, Corn (Corn): 1
Phytotoxicity, Cotton (Cotton): 1
Phytotoxicity, Soybean (Soybean): 1
Pesticidal Activity, Mite [1]: B
Pesticidal Activity, Aphid [2]: A
Pesticidal Activity, Mexican Bean Beetle [3]: A
Pesticidal Activity, House fly [4]: A
Pesticidal Activity, Southern Armyworm [5]: A

C#CCOc1ccccc1OC(=O)N(C)SN(C)C(=O)Oc1cccc2ccccc12
Phytotoxicity, Bean (Bean): 1
Phytotoxicity, Tomato (Tomato): 1
Phytotoxicity, Corn (Corn): 1
Phytotoxicity, Cotton (Cotton): 1
Phytotoxicity, Soybean (Soybean): 2
Pesticidal Activity, Mite [1]: C
Pesticidal Activity, Aphid [2]: A
Pesticidal Activity, Mexican Bean Beetle [3]: A
Pesticidal Activity, House fly [4]: A
Pesticidal Activity, Southern Armyworm [5]: A

C=CCc1ccc(OC(=O)N(C)SN(C)C(=O)Oc2ccc(CC=C)cc2OC)c(OC)c1
Phytotoxicity, Bean (Bean): 1
Phytotoxicity, Tomato (Tomato): 1
Phytotoxicity, Corn (Corn): 1
Phytotoxicity, Cotton (Cotton): 1
Phytotoxicity, Soybean (Soybean): 1
Pesticidal Activity, Mite [1]: C
Pesticidal Activity, Aphid [2]: C
Pesticidal Activity, Mexican Bean Beetle [3]: C
Pesticidal Activity, House fly [4]: C
Pesticidal Activity, Southern Armyworm [5]: C
